Data: patent US20180237362A1, “NOVEL POLYGODIAL ANALOGS FOR THE TREATMENT OF CANCER AND OTHER PROLIFERATIVE DISEASES” (THE BOARD OF REGENTS OF THE UNIVERSITY OF TAXAS SYSTEM, priority 2015, published 2018)
Like-named read-outs stand apart in the source and are kept apart here.

Legend:
HeLa-derived tumors = assay: Mouse xenograft model, HeLa; type: in vivo, athymic nude mice; settings: for anti-tumor effect, HeLa-derived tumors: 40 μg/100 μl intra-tumor injection every other day for 18 days, polygodial significantly more efficacious than P3; for adverse effects, HeLa xenograft mice: intra-tumor injection every other day for 18 days
Experimental: Six-week old female athymic nude mice were used in laminar air-flow cabinet in pathogen-free conditions. They were acclimated for one week prior to the start of the study and kept at controlled temperature and humidity, with food and water. Mice were injected subcutaneously in the flank with 2×10^6 Cal27 cells or HeLa cells in 0.1 mL of sterile PBS. When the tumors reached 100 mm^3 (Cal27) and 150 mm^3 (HeLa), the mice were stratified into 4 groups, […], polygodial, P10, P3 and P27 at the concentrations noted in the figure legends.

HeLa cells = assay: Calcium imaging, HeLa; type: cell-based, human
human SKMEL-28 melanoma = assay: MTT antiproliferative assay, SKMEL-28; type: cell-based; settings: sextuplicates, read-out: GI50 in vitro values, SKMEL-28
Experimental: (§1) Human mammary carcinoma MCF-7 (ATCC HTB22) cells were cultured in RPMI supplemented with 10% FBS. The U87 cells (ATCC HTB-14) were cultured in DMEM culture medium, while the A549 cells (DSMZ ACC107) were cultured in RPMI culture medium supplemented with 10% heat-inactivated FBS. The GBM Hs683 (ATCC HTB-138) cells were cultivated in DMEM supplemented with 10% FBS. The human uterine sarcoma MES-SA (ATCC CRL1966) and MES-SA/D×5 cells were cultured in RPMI-1640 medium supplemented with 10% FBS with MES SA/D×5 maintained in the presence of 500 nM Doxorubicin (Sigma). SKMEL-28 cells (ATCC HTB72) and U373 GBM cells (ECACC 08061901) were cultured in RPMI culture medium supplemented with 10% heat-inactivated FBS. Cell culture media were supplemented with 4 mM glutamine (Lonza code BE17-605E), 100 μg/mL gentamicin (Lonza code 17-5182), and penicillin-streptomycin (200 units/ml and 200 μg/ml) (Lonza code 17-602E). The MDA-MB-231 (ATCC HTB-26) epithelial mammary adenocarcinoma cells were cultured in Eagle's minimum essential medium (EMEM; Invitrogen) containing 5% fetal calf serum (FCS, Cambrex), 2 mM L-glutamine (Invitrogen), 0.06% HEPES (Invitrogen) and penicillin (50 IU/ml)/streptomycin (50 µg/ml; Invitrogen) at 37° C. in a humidified atmosphere of 5% CO2 in air. Transformed mouse NPCs were cultured in suspension under neurosphere conditions at 37° C. in a humidified atmosphere of […] and 5% CO2 in DMEM F12 (Invitrogen 11320-074) supplemented with 1×B27 supplement (Invitrogen 17504-044), 5% penicillin-streptomycin (Biochrom 10378-017), 10 ng/ml EGF (R&D systems 236-EG), 10 ng/ml FGF (PeproTech 100-18B).
(§2) Antiproliferative properties of the synthesized compounds were evaluated by the MTT assay. All compounds were dissolved in DMSO at a concentration of either 100 μM or 50 μM prior to cell treatment. The cells were trypsinized and seeded at various cell concentrations depending on the cell type. The cells were grown for 24 h to 72 h, treated with compounds at concentrations ranging from 0.001 to 100 μM and incubated for 48 or 72 h in 100 or 200 μL media depending on the cell line used. The number of experiments and replicates varied depending on the cell line. Cells treated with 0.1% DMSO were used as a negative control; 1 μM PAO was used as a positive control.
(§3) The synthesized C12-Wittig derivatives were evaluated for antiproliferative activities in a panel of cancer cell lines that included apoptosis-resistant human U373 glioblastoma (GBM) (Lefranc et al., 2013), human A549 non-small cell lung cancer (NSCLC) and human SKMEL-28 melanoma (Mathieu et al., 2009) as well as apoptosis-sensitive human Hs683 anaplastic oligodendroglioma (Lefranc et al., 2013) and human MCF-7 breast cancer (Frolova et al., 2013).

[1] = tested on: cervical cancer cell line HeLa; assay: Cell viability (Cell Titer 96 Aqueous), HeLa; type: cell-based, human; settings: 48 hours; potency order P10, polygodial, P3
Description: Human cancer cell lines were obtained from the American Type Culture Collection (ATCC, Manassas, Va., USA), the European Collection of Cell Culture (ECACC, Salisbury, UK) and the Deutsche Sammlung von Mikroorganismen und Zellkulturen (DSMZ, Braunschweig, Germany). The OSCC cell lines, Cal27 and HSC3 are derived from human primary tongue tumor. Cal27 cells were obtained from the American Type Culture Collection (Rockville, Md.). HSC3 cells were provided by Dr. Brian Schmidt. HeLa cells (cervical cancer cell line) were obtained from ATCC. Cells were cultured in DMEM, containing 10% FBS and 1% penicillin-streptomycin media, at 37° C. in 5% CO2. All cells were authenticated by Genetic DNA Laboratories.
The cytotoxicity of polygodial, P10, P3, and P27 in Cal27, HSC3, and HeLa cells was examined in vitro using a colorimetric assay, Cell Titer 96® Aqueous Non-Radioactive Cell Proliferation Assay. […] GraphPad Prism4 was used to perform statistical analysis.

HSC3 cells = assay: Calcium imaging, HSC3; type: cell-based, human; settings: for calcium influx, HSC3: polygodial 80 μM, P10 4 μM, P3 50 μM
[2] = tested on: human A549 non-small cell lung cancer (NSCLC); assay: MTT antiproliferative assay, A549; type: cell-based; settings: for GI50: 72 h treatment, MTT assay, sextuplicates, read-out: GI50 in vitro values, A549
Experimental: as §1, §2, §3

GI50 (human SKMEL-28 melanoma; Homo sapiens, SK-MEL-28, 72 h treatment) | GI50 ([2]; Homo sapiens, A549) | SMILES | anti-tumor effect, HeLa-derived tumors (HeLa-derived tumors) | adverse effects, HeLa xenograft mice (HeLa-derived tumors) | calcium influx, HeLa (HeLa cells; polygodial 80 μM, P10 4 μM, P3 50 μM) | GI50 (human SKMEL-28 melanoma; 72 h treatment) | cancer cell viability, HeLa [1] | calcium influx, HSC3 (HSC3 cells) | GI50 [2] | effect on proliferation/viability of all cells, A549 ([2]; apoptosis-resistant A549 NSCLC, concentrations up to 100 μM) | reversal of calcium influx by capsazepine, HeLa (HeLa cells; CPZ 10 μM) | reversal of calcium influx by capsazepine, HSC3 (HSC3 cells; CPZ 10 μM)
 |  | COC(=O)/C=C/C1=CC[C@H]2C(C)(C)CCC[C@]2(C)[C@H]1C=O [Compound 5] | significant anti-tumor effects | No observable adverse effects | did not induce calcium influx | 27 µM | reduced cancer cell viability in vitro | did not induce calcium influx | 21 µM | growth inhibitory properties against most of the cells |  | 
65 µM | 90 µM | CC1(C)CCC[C@]2(C)[C@@H](C=O)C(C=O)=CC[C@@H]12 [Compound 1, Polygodial] | significant anti-tumor effects | marked inflammatory response |  |  | reduced cancer cell viability in vitro | did induce calcium influx |  |  | CPZ did not fully reverse calcium influx | inhibited by CPZ
